Here are results for 57 compounds from ChEMBL document CHEMBL1138458, “Fructose-1,6-bisphosphatase inhibitors. 1. Purine phosphonic acids as novel AMP mimics” (J Med Chem, 2009).

Where only a bound is given, the exact number is not on record here.

The target in data set [1] is T1, Fructose-1,6-bisphosphatase 1 (Homo sapiens, UniProt P09467).
T1 sequence (P09467 whole entry): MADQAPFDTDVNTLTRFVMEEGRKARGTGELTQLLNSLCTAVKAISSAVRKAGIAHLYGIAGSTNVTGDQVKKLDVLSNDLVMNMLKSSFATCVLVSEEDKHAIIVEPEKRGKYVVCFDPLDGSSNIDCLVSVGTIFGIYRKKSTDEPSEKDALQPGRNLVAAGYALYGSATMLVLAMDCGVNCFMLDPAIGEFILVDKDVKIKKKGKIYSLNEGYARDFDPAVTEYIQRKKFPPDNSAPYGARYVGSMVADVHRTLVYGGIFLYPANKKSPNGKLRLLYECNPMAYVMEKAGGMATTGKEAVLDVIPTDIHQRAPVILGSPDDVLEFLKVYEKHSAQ
The experiment in a line: Inhibition of human liver FBPase expressed in Escherichia coli by spectrophotometry.

The next data set deals with Hepatocyte. Kind of data set: Inhibition of glucose production in rat primary hepatocytes treated for 15 to 30 mins prior to gluconeogenic substrate dihydroxyacetone addition. It counts as functional, cell-based.
For data set [2], the target named is T2, Fructose-1,6-bisphosphatase 1 (Rattus norvegicus, UniProt P19112).
T2 sequence (P19112 whole entry): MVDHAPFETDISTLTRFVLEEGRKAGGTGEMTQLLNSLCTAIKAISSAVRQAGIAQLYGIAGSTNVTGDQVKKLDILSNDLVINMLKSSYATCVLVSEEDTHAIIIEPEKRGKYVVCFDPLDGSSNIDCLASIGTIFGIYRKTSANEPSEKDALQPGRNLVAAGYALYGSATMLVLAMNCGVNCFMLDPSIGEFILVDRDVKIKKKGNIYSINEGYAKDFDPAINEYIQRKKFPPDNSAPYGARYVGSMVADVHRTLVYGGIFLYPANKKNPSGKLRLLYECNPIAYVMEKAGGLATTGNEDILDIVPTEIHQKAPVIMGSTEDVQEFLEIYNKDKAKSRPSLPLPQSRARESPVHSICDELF
The experiment in a line: Inhibition of rat liver FBPase.

The next data set has as its target Adenosine kinase (Homo sapiens, UniProt P55263). Kind of data set: Inhibition of human recombinant adenosine kinase expressed in Escherichia coli.
Another data set relates to Rattus norvegicus. Kind of data set: Oral bioavailability in fasted Sprague-Dawley rat assessed as urinary excretion of phosphonic acid up to 300 mg/kg. It counts as ADME, organism-based, Urine. The settings on record: in vivo.
Data set [3] can be described thus: Inhibition of pig heart AMP deaminase. Also noted: species or system Sus scrofa.
Data set [4] is described as follows: Inhibition of New Zealand white rabbit liver phosphofructokinase. Also on record: species or system Oryctolagus cuniculus.
For data set [5], the target named is T3, Fructose-1,6-bisphosphatase 1 (Homo sapiens) (UniProt P09467).
T3 sequence (whole entry): T1 sequence (P09467 whole entry)
Description: Displacement of [3H]AMP from human liver FBPase

Chain of Adenosine kinase (P55263 whole entry): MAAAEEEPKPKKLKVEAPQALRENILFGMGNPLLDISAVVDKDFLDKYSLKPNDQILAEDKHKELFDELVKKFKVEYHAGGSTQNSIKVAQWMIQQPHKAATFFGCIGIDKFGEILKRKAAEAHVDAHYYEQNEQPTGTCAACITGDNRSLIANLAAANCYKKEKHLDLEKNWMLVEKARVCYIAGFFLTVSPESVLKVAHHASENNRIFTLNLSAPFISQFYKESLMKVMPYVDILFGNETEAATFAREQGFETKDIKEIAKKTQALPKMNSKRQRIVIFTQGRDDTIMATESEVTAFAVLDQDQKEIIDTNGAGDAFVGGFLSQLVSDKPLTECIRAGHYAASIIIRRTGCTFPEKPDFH

The IC50 is the concentration that inhibits the measured activity by half. In data set [1], `Nc1ncnc2c1nc(-c1ccc(S(=O)(=O)O)o1)n2CCc1ccccc1` showed an IC50 of 150 µM.
Still for that read-out and setting: the result for `Cn1c(-c2nc3c(N)ncnc3n2CC(C)(C)C)ccc1P(=O)(O)O` reads more than 10 µM; that for `Nc1ncnc2c1nc(NCCOP(=O)(O)O)n2[C@@H]1O[C@H](CO)[C@@H](O)[C@H]1O`, 140 µM; that for `Nc1ncnc2c1nc(C(=O)NCP(=O)(O)O)n2CCc1ccccc1`, 100 µM.
Still for that read-out and setting: the result for `Nc1ncnc2c1nc(NCCP(=O)(O)O)n2CCc1ccccc1` reads 100 µM.
On the same count and under the same terms, under `CC(C)(C)Cn1c(-c2ccc(P(=O)(O)O)o2)nc2c(N)nc(N)nc21` stands 5.5 µM; under `CCn1c(-c2ccc(P(=O)(O)O)o2)nc2c(N)ncnc21`, 1.8 µM.
In general, EC50 refers to the concentration needed to bring the measured effect to its halfway point. Read a low EC50 as a more potent agent. As to `CC(C)(CO)Cn1c(-c2ccc(P(=O)(O)O)o2)nc2c(N)ncnc21`, a half-maximal effect in the data set with Hepatocyte (EC50) was put at 50 µM. Moreover, the IC50 in data set [2] is more than 20 µM.
In data set [1], `CC(Cc1nc2c(N)ncnc2n1CCc1ccccc1)[PH](=O)O` (stereo not drawn) came in with an IC50 of more than 1000 µM.
For `CC(C)Cn1c(-c2ccc(P(=O)(O)O)o2)nc2c(N)ncnc21`, the EC50 with Hepatocyte came to 18 µM. The IC50 is 1.5 µM in data set [1] and 7 µM in data set [2].
In the case of `Nc1ncnc2c1nc(CCC[PH](=O)O)n2CCc1ccccc1`, in data set [1], the IC50 is more than 1000 µM.
Regarding `Nc1ncnc2c1nc(-c1ccc(P(=O)(O)O)o1)n2CC(c1ccccc1)c1ccccc1`, in data set [1], the IC50 was 70 µM.
The same measure, in the same setting: the result for `Nc1ncnc2c1nc(-c1ccc(P(=O)(O)O)o1)n2C1CC1` reads 1.5 µM; that for `Cn1c(P(=O)(O)O)cnc1-c1nc2c(N)ncnc2n1CC(C)(C)C`, more than 10 µM; that for `Nc1ncnc2c1nc(CNCP(=O)(O)O)n2CCc1ccccc1`, more than 500 µM.
`CSc1nc(N)c2nc(-c3ccc(P(=O)(O)O)o3)n(CC(C)C)c2n1`: in the data set with Hepatocyte, the EC50 was more than 25 µM. Besides, in data set [2], the half-inhibitory concentration (IC50) is more than 20 µM.
`Nc1ncnc2c1nc(-c1ccc(P(=O)(O)O)o1)n2CCc1ccccc1`: the values for the IC50 (at Adenosine kinase; in data set [2]; in data set [3]) were more than 100 µM, 40 µM and 6.7 µM, respectively. Also, the EC50 in the data set with Hepatocyte was 5 µM; in data set [4], more than 200 µM. For the same compound, the F in the data set on Rattus norvegicus is given as less than 5%.
The compound `CC(n1c(-c2ccc(P(=O)(O)O)o2)nc2c(N)ncnc21)C(C)(C)C` (stereo not drawn) yielded an IC50 in data set [1] of 5 µM.
Compound `Nc1ncnc2c1nc(-c1ccc(P3(=O)OCCSSCCO3)o1)n2CCc1ccccc1` displayed an EC50 with Hepatocyte of 250 µM.
Consider `Nc1ncnc2c1nc(/C=C/C(=O)O)n2[C@@H]1O[C@H](CO)[C@@H](O)[C@H]1O`, for which the IC50 in data set [1] was more than 100 µM.
On the same count and under the same terms, the result for `Nc1ncnc2c1nc(CCCP(=O)(O)O)n2CCc1ccccc1` reads 100 µM; that for `Nc1ncnc2c1nc(CCO[PH](=O)O)n2CCc1ccccc1`, more than 1000 µM; that for `CN(C)c1ncnc2c1nc(-c1ccc(P(=O)(O)O)o1)n2CCc1ccccc1`, 250 µM.
As to `CC(C)(C)Cn1c(-c2ccc(P(=O)(OCOC(=O)C(C)(C)C)OCOC(=O)C(C)(C)C)o2)nc2c(N)ncnc21`, the F in the data set with Rattus norvegicus was 5.3%.
`Nc1ncnc2c1nc(NCCP(=O)(O)O)n2Cc1ccc2ccccc2c1` gave a concentration for half-maximal inhibition (IC50) in data set [1] of 35 µM.
As for `Nc1ncnc2c1nc(COCP(=O)(O)O)n2CCc1ccccc1`, the midpoint of inhibition in data set [1], the IC50, lay at 23 µM.
On the same count and under the same terms, under `Nc1ncnc2c1nc(NCP(=O)(O)O)n2[C@@H]1O[C@H](CO)[C@@H](O)[C@H]1O` stands more than 100 µM; under `CC(C)(C)Cn1c(-c2coc(P(=O)(O)O)c2)nc2c(N)ncnc21`, more than 10 µM; under `CC(C)(C)CCn1c(-c2ccc(P(=O)(O)O)o2)nc2c(N)ncnc21`, 1.6 µM.
On the same count and under the same terms, the result for `Nc1ncnc2c1nc(NCCP(=O)(O)O)n2Cc1ccccc1` reads 91 µM.
Turning to `Nc1ncnc2c1nc(NCCCP(=O)(O)O)n2[C@@H]1O[C@H](CO)[C@@H](O)[C@H]1O`, the IC50 in data set [1] is more than 100 µM.
In the data set with Hepatocyte, `CC(=O)OC1CCCC(OP(=O)(OC2CCCC(OC(C)=O)C2)c2ccc(-c3nc4c(N)ncnc4n3CCc3ccccc3)o2)C1` (stereo not drawn) came in with an EC50 of 400 µM.
The compound `Nc1ncnc2c1nc(-c1ccc(P(=O)(O)O)s1)n2CCc1ccccc1` came in with an IC50 in data set [1] of 48 µM.
`Nc1ncnc2c1nc(-c1ccc(P(=O)(OCCSSCCO)OCCSSCCO)o1)n2CCc1ccccc1` displayed an EC50 in the data set with Hepatocyte of more than 500 µM.
`Nc1ncnc2c1nc(-c1ccc(P(=O)(O)O)o1)n2C1CCCC1` showed an EC50 in the data set with Hepatocyte of 24 µM. Also, the IC50 in data set [2] was more than 20 µM.
Compound `CC(C)Cn1c(-c2ccc(P(=O)(O)O)o2)nc2c(N)nc(S(C)(=O)=O)nc21` yielded an IC50 in data set [1] of 28 µM.
`COc1cc2c(c(OC)c1OC)C(=O)OC2OP(=O)(OC1OC(=O)c2c1cc(OC)c(OC)c2OC)c1ccc(-c2nc3c(N)ncnc3n2CCc2ccccc2)o1` (stereo not drawn): a half-maximal effect with Hepatocyte (EC50) was put at 75 µM.
In turn, `Nc1ncnc2c1nc(CCOP(=O)(O)O)n2CCc1ccccc1` gave an IC50 in data set [1] of 40 µM.
Same read-out and setting: the result for `CNc1ncnc2c1nc(-c1ccc(P(=O)(O)O)o1)n2CCc1ccccc1` reads 50 µM; that for `O=P(O)(O)c1ccc(-c2nc3c(Cl)ncnc3n2CCc2ccccc2)o1`, 50 µM.
In the case of `Nc1ncnc2c1nc(SCCP(=O)(O)O)n2CCc1ccccc1`, the IC50 in data set [1] is 145 µM.
In data set [1], `CC(C)(C)Cn1c(Cn2ccnc2P(=O)(O)O)nc2c(N)ncnc21` displayed an IC50 of more than 100 µM.
On the same count and under the same terms, under `C[C@H]1O[C@@H](n2c(NCCP(=O)(O)O)nc3c(N)ncnc32)[C@H](O)[C@@H]1O` stands 100 µM.
As for `Nc1ncnc2c1nc(S(=O)(=O)CCP(=O)(O)O)n2CCc1ccccc1`, the IC50 in data set [1] was more than 1000 µM.
As for `CC(C)C(=O)OCOP(=O)(OCOC(=O)C(C)C)c1ccc(-c2nc3c(N)ncnc3n2CCc2ccccc2)o1`, a half-maximal effect in the data set on Hepatocyte (EC50) was put at 25 µM.
As to `CN(C)CC(C)(C)Cn1c(-c2ccc(P(=O)(O)O)o2)nc2c(N)ncnc21`, the IC50 in data set [1] is more than 10 µM.
Same read-out and setting: the result for `Nc1ncnc2c1nc(/C=C/CP(=O)(O)O)n2CCc1ccccc1` reads 100 µM; that for `Nc1ncnc2c1nc(NCCC(=O)O)n2[C@@H]1O[C@H](CO)[C@@H](O)[C@H]1O`, more than 100 µM.
Consider `NC(=O)c1ncn([C@@H]2O[C@H](COP(=O)(O)O)[C@@H](O)[C@H]2O)c1N`, for which the ED50 in data set [5] came to 250 µM. Besides, in data set [1], it took 12 µM to reach half-maximal inhibition (IC50).
In data set [1], `Nc1ncnc2c1nc(CCC(=O)O)n2[C@@H]1O[C@H](CO)[C@@H](O)[C@H]1O` registered an IC50 of more than 100 µM.
Same read-out and setting: the result for `Nc1ncnc2c1nc(-c1ccc(C(=O)O)o1)n2CCc1ccccc1` reads more than 100 µM.
The compound `Nc1ncnc2c1nc(-c1ccc(P(=O)(O)O)o1)n2CCC1CCCCC1` registered a 50% effective concentration (EC50) in the data set with Hepatocyte of 90 µM. The ED50 in data set [5] turned out to be 35 µM. This compound also yielded an IC50 in data set [2] of 20 µM.
`Nc1ncnc2[nH]c(NCCP(=O)(O)O)nc12` yielded an IC50 in data set [1] of more than 100 µM.
Turning to `CSc1nc(N)c2nc(-c3ccc(P(=O)(O)O)o3)n(CC(C)(C)C)c2n1`, a half-maximal effect in the data set on Hepatocyte (EC50) was put at 8.5 µM. Further, the IC50 is 1.1 µM in data set [1] and 4 µM in data set [2].
Compound `COc1ccc(COP(=O)(OCc2ccc(OC)c(C#N)c2)c2ccc(-c3nc4c(N)ncnc4n3CCc3ccccc3)o2)cc1C#N` registered an EC50 in the data set on Hepatocyte of more than 100 µM.
With `Nc1ncnc2c1nc(NCC(=O)O)n2[C@@H]1O[C@H](CO)[C@@H](O)[C@H]1O`, in data set [1], the IC50 is more than 100 µM.
Take `CC(C)(CCl)Cn1c(-c2ccc(P(=O)(O)O)o2)nc2c(N)ncnc21`: the EC50 in the data set with Hepatocyte came to 7.5 µM. In data set [2], the IC50 is more than 2 µM.
